# Laboratory results reported in patent US20090311237A1, “Combination therapy using a soluble hyaluronidase and a bisphosphonate” (priority 2008, published 2009).
# Where “and” joins values, the source holds several entries; their conditions need not be identical. Identical values can stand only once. Like-named read-outs stand apart in the source and are kept apart here.
# Test: Phase 1 Stage 1 clinical pharmacokinetics of SC ZA co-administered with rHuPH20
# Assay type: in vivo, human
# Design: key to Mean Conc. / Median Conc.: BLQ = blow limit for quantitation
# Conditions: serum, serum; for MAT: subcutaneous, 100 mL, 24000 Units rHuPH20, read-out: MAT (mean absorption time = SC MRT − IV MRT); for half-life: read-out: T½ λz (converted)
# Method: A pharmacokinetic study of zoledronic acid (ZA) co-administered with rHuPH20 in human subjects was conducted. The primary objective of the study was to determine the bioavailability of zoledronic acid dosed via subcutaneous (SC) co-administration with human recombinant hyaluronidase PH20 (rHuPH20). […] The patients were administered the prescribed dosage formulations as follows: Cohorts 1-5 were administered a single subcutaneous infusion in a dosage volume of 100 ml at a rate of 3 mL/min. […] The dosing solution is administered via needle or catheter into the SC space of the left anterior thigh (midway between the anterior iliac crest and the cephalad border of the patella). For cohorts 1-5, the dosing solutions were administered by a controlled rate infusion pump at approximately 3 mL/minute. […] The dosing solutions were administered by syringe push bolus injection. […] Serum concentration of ZA was determined using a qualified LC-MS-MS assay after derivatization with diazomethane (Zhu, L S et al. (2006) Rapid Commun. […] The assay range was from 2.0 to 400 ng/mL with a lower limit of quantitation (LLOQ) at 2.0 ng/mL. […] Non-compartmental analysis was used for derivation of primary and secondary pharmacokinetic (PK) parameters. […] Summary statistics (mean, standard deviation, and median) were calculated using JMP or Microsoft Excel.
# [1] = ZA 0.25 mg SC infusion + 24000 Units rHuPH20, 12 h post infusion, n=3
# [2] = ZA 0.25 mg SC infusion + 24000 Units rHuPH20, 24 h post infusion, n=3
# [3] = ZA 0.25 mg SC infusion + 24000 Units rHuPH20, 48 h post infusion, n=3
compound,measurement,setting,value
"O=P(O)(O)C(O)(Cn1ccnc1)P(=O)(O)O [ZA, 1-hydroxy-2-(1H-imidazol-1-yl)ethylidene-1,1-bisphosphonic acid]",concentration at 6 h,"human, sc, ZA 5 mg SC infusion + 24000 Units rHuPH20, 6 h post infusion, n=3, read-out: Median Conc.",22.3 ng/mL
same,concentration at 8 h,"human, sc, ZA 5 mg SC infusion + 24000 Units rHuPH20, 8 h post infusion, individual subjects, read-out: Zoledronic Acid Concentration",9.44 ng/mL
same,concentration at 8 h,"human, sc, ZA 5 mg SC infusion + 24000 Units rHuPH20, 8 h post infusion, n=3, read-out: Mean Conc.",11 ng/mL
same,concentration at 8 h,"human, sc, ZA 5 mg SC infusion + 24000 Units rHuPH20, 8 h post infusion, n=3, read-out: Median Conc.",11 ng/mL
same,concentration at 12 h,"human, sc, ZA 5 mg SC infusion + 24000 Units rHuPH20, 12 h post infusion, individual subjects, read-out: Zoledronic Acid Concentration",3.91 ng/mL
same,concentration at 12 h,"human, sc, ZA 5 mg SC infusion + 24000 Units rHuPH20, 12 h post infusion, n=3, read-out: Mean Conc.",4.51 ng/mL
same,concentration at 12 h,"human, sc, ZA 5 mg SC infusion + 24000 Units rHuPH20, 12 h post infusion, n=3, read-out: Median Conc.",4.61 ng/mL
same,concentration at 24 h,"human, sc, ZA 5 mg SC infusion + 24000 Units rHuPH20, 24 h post infusion, individual subjects, read-out: Zoledronic Acid Concentration",2.15 ng/mL
same,concentration at 24 h,"human, sc, ZA 5 mg SC infusion + 24000 Units rHuPH20, 24 h post infusion, n=3, read-out: Mean Conc.",2.45 ng/mL
same,concentration at 24 h,"human, sc, ZA 5 mg SC infusion + 24000 Units rHuPH20, 24 h post infusion, n=3, read-out: Median Conc.",2.23 ng/mL
same,concentration at 48 h,"human, sc, ZA 5 mg SC infusion + 24000 Units rHuPH20, 48 h post infusion, individual subjects, read-out: Zoledronic Acid Concentration",1.28 ng/mL
same,concentration at 48 h,"human, sc, ZA 5 mg SC infusion + 24000 Units rHuPH20, 48 h post infusion, n=3, read-out: Mean Conc.",1.55 ng/mL
same,concentration at 48 h,"human, sc, ZA 5 mg SC infusion + 24000 Units rHuPH20, 48 h post infusion, n=3, read-out: Median Conc.",1.63 ng/mL
same,MAT,"human, 0.5 mg, ZA 0.5 mg SC, individual subjects",0.96 h
same,MAT,"human, 1 mg, ZA 1 mg SC, individual subjects",1.68 h
same,half-life,"human, Subj 1, ZA 0.0045 mg/kg SC, inf 0.554 hr, PH20 23928 U",1.88 h
same,half-life,"human, Subj 8, ZA 0.0032 mg/kg SC, inf 0.531 hr, PH20 22944 U",3.09 h
same,half-life,"human, Subj 11, ZA 0.0033 mg/kg SC, inf 0.554 hr, PH20 23928 U",2.2 h
same,half-life,"human, Subj 21, ZA 0.0066 mg/kg SC, inf 0.556 hr, PH20 24000 U",2.27 h
same,half-life,"human, Subj 29, ZA 0.0339 mg/kg SC, inf 0.556 hr, PH20 24000 U",8.7 h
same,half-life,"human, Subj 32, ZA 0.0350 mg/kg SC, inf 0.556 hr, PH20 24000 U",22 h
same,half-life,"human, Subj 37, ZA 0.0791 mg/kg SC, inf 0.556 hr, PH20 24000 U",23.4 h
same,half-life,"human, Subj 38, ZA 0.0706 mg/kg SC, inf 0.554 hr, PH20 23952 U",24.4 h
same,half-life,"human, Subj 46, ZA 0.0877 mg/kg SC, inf 0.276 hr, PH20 12000 U",20.8 h
same,half-life,"human, Subj 71, ZA 0.0781 mg/kg SC, inf 0.250 hr, PH20 6000 U",19.2 h
same,half-life,"human, Subj 74, ZA 0.0794 mg/kg SC, inf 0.250 hr, PH20 6000 U",23.7 h
same,Zoledronic Acid Concentration,"ZA 0.25 mg SC infusion + 24000 Units rHuPH20, 0 h post infusion, individual subjects, listed as Zoledronic Acid",4.69 ng/mL
same,Zoledronic Acid Concentration,"ZA 0.25 mg SC infusion + 24000 Units rHuPH20, 10 min post infusion, individual subjects, listed as Zoledronic Acid",4.97 ng/mL and 4.87 ng/mL
same,Zoledronic Acid Concentration,"ZA 0.25 mg SC infusion + 24000 Units rHuPH20, 0.5 h post infusion, individual subjects, listed as Zoledronic Acid",5.17 ng/mL and 6.25 ng/mL
same,Zoledronic Acid Concentration,"ZA 0.25 mg SC infusion + 24000 Units rHuPH20, 1 h post infusion, individual subjects, listed as Zoledronic Acid",5.67 ng/mL and 6.60 ng/mL
same,Zoledronic Acid Concentration,"ZA 0.25 mg SC infusion + 24000 Units rHuPH20, 2 h post infusion, individual subjects, listed as Zoledronic Acid",4.33 ng/mL and 5.44 ng/mL
same,Zoledronic Acid Concentration,"ZA 0.25 mg SC infusion + 24000 Units rHuPH20, 4 h post infusion, individual subjects, listed as Zoledronic Acid",3.45 ng/mL and 3.06 ng/mL
same,Zoledronic Acid Concentration,"ZA 0.25 mg SC infusion + 24000 Units rHuPH20, 6 h post infusion, individual subjects, listed as Zoledronic Acid",2.02 ng/mL and 1.35 ng/mL
same,Zoledronic Acid Concentration,"ZA 0.25 mg SC infusion + 24000 Units rHuPH20, 8 h post infusion, individual subjects, listed as Zoledronic Acid",1.11 ng/mL and 0.79 ng/mL
same,Zoledronic Acid Concentration,"ZA 0.25 mg SC infusion + 24000 Units rHuPH20, 12 h post infusion, individual subjects",BLQ < (0.500) ng/mL
same,Mean Conc.,[1],BLQ
same,Median Conc.,[1],BLQ
same,Zoledronic Acid Concentration,"ZA 0.25 mg SC infusion + 24000 Units rHuPH20, 24 h post infusion, individual subjects",BLQ < (0.500) ng/mL
same,Mean Conc.,[2],BLQ
same,Median Conc.,[2],BLQ
same,Zoledronic Acid Concentration,"ZA 0.25 mg SC infusion + 24000 Units rHuPH20, 48 h post infusion, individual subjects",BLQ < (0.500) ng/mL
same,Mean Conc.,[3],BLQ
same,Median Conc.,[3],BLQ
same,Zoledronic Acid Concentration,"ZA 0.5 mg SC infusion + 24000 Units rHuPH20, 0 h post infusion, individual subjects, listed as Zoledronic Acid",13.60 ng/mL
